The test system of test [1] is tyrosine hydroxylase positive mesencephalic neurons injured by 6-OHDA. Put plainly: Neuroprotective effect on damage induced by 6-OHDA on culture of mesencephalic neurons. The settings on record: Rattus norvegicus, Neuron; 50 uM; 6-OHDA 15 μM, 48h; read-out: % reversion of TH positive neurons (6-OHDA-mediated degradation of dopaminergic neurons). The format is cell-based. On the procedure: The protective effect of compounds of the present disclosure was determined on 6-OHDA-mediated injury on mesencephalon neuronal cultures.
(§1) A female Wistar rat (Janvier; France) of 15 days gestation was terminated by cervical dislocation, the fetuses were removed from the uterus and their brains were harvested and placed in ice-cold medium (Leibovitz's L15 medium, Gibco). Only ventral mesencephalic flexure was used for the cell preparations. The midbrain was dissociated by trypsinization. The reaction was stopped, and the suspension was triturated and centrifuged. The pellet of dissociated cells was resuspended in chemically defined medium consisted of Neurobasal (Gibco, 21103049), containing B27 supplement (Gibco, A3582801) and L-glutamine (Gibco, 25030081), 10 ng/ml (BDNF; Pepro Tech, France, 450-02) and 1 ng/ml (GDNF; Pepro Tech, 450-51).
(§2) Viable primary rat embryo mesencephalic cells were counted and seeded on 96-multi-wells plate precoated with poly-L-lysine. Cells were maintained in a humidified incubator at 37° C. in 5% CO2-95% air atmosphere and medium changed on day 2. On day 6, the culture medium was removed and replaced by new media without neurotrophic factors containing the compounds of the present disclosure (50-10 μM) or vehicle (0.1% DMSO). After 1h exposure, injury of mesencephalon neuronal cultures was induced by 6-OHDA (15 μM) for further 48h. A mixture of the growth factors GDNF (1 ng/ml) and BDNF (10 ng/ml) were used as reference compound. On day 8, the tyrosine hydroxylase positive neurons were evaluated. Cultures were fixed 30 min at 4° C. with paraformaldehyde in PBS (4%, Sigma). After, cells were permeabilized with 0.1% Triton X100 for 30 min, saturated with PBS containing 3% of BSA (bovine serum albumin) and incubated 2h with anti-tyrosine hydroxylase antibody (Sigma, 1:10000; clone TH-2) at 1/10000 in PBS containing 0.5% of BSA. Cells were washed three times with PBS containing 0.5% of BSA and incubated 1h with goat anti mouse antibody coupled with AF488 (Invitrogen A11001) diluted at 1/1000 in PBS containing 0.5% of BSA. Finally, nuclei were stained with DAPI (Thermo fisher, D1306) at 1/1000 in PBS containing 0.5% of BSA. After rinsing with PBS, the plate was visualized and examined with Cell Insight HCS (Thermo Scientific) to determine the number of tyrosine hydroxylase positive cells per well.
(§3) The results for each well were expressed as a percentage by setting the density of tyrosine hydroxylase positive cells under control conditions to 100%. Then the result for each condition was reported as mean±SEM from 4 independent cultures.
(§4) A global analysis of the data was performed using a one-way analysis of variance (ANOVA), followed by Fisher's Protected Least Significant Difference when applicable. The level of significance was set to p<0.05.

In test [2] the test system is primary fibroblasts (healthy controls and PA, MMA, BCKDK, PDH, VLCAD, LS, PC, GA, VLCFA, KSS, FXN, HD). The test can be described thus: Measurement of ROS (H2DCFDA) in primary fibroblasts. The class given is cell-based, human. Conditions: Homo sapiens, Fibroblast, procedure Example 812. Summed up:
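Patient and healthy-control primary fibroblasts switched to supplemented DMEM 24 h before assay, then treated with compound (10 μM) plus H2DCFDA (22 μM) for 2 h (PA, MMA lines) or 24 h (other lines). Kinetic fluorescence at 492/527 nm over 60 min; only live cells analysed.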

Test [3] deals with tyrosine hydroxylase positive mesencephalic neurons injured by MPP+. The test can be described thus: Neuroprotective effect on damage induced by MPP+ on culture of mesencephalic neurons. The format is cell-based. The settings on record: Rattus norvegicus, Neuron, MPP+ 50 μM, 48h, read-out: % reversion of TH positive neurons (MPTP-mediated degradation of dopaminergic neurons).
Source text: as §1, with “(Gibco),” for “(Gibco, 21103049),”, “(Gibco)” for “(Gibco, A3582801)”, “(Gibco),” for “(Gibco, 25030081),”, “France)” for “France, 450-02)”, “Tech).” for “Tech, 450-51).”
as §2, with “MPP^+ (50” for “6-OHDA (15”, “Thermo Scientific, 28908).” for “Sigma).”, “DAPI” for “DAPI (Thermo fisher, D1306)”
as §3, §4

The test system of test [4] is HepG2 cells. The test can be described thus: Mitochondrial membrane potential (MITO-ID MP detection Kit). The class given is cell-based. Conditions: Homo sapiens, 168 h, 10 uM, 7 days, read-out: % decrease in Mitochondrial Membrane Potential. The essentials:
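Cells plated at 160000 cells/mL in DMEM with 10% FBS and 1% Pen-Strep, adhered overnight at 37° C., 5% CO2. Exposure to test compounds (50-10 μM) or 0.2% DMSO for 7 days without media change; membrane potential measured with MITO-ID MP detection kit per manufacturer.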

Test [5] concerns HepG2 cells. The test can be described thus: MitoBiogenesis In-Cell ELISA (COX-I, SDH-A). The class given is cell-based. Conditions: Homo sapiens, 168 h, 10 uM, 7 days, read-out: % increase in Mitochondrial Biogenesis. From the text:
We determined the effect of compounds of the present disclosure on the levels of two mitochondrial proteins using MitoBiogenesis™ In-Cell ELISA Kit (Abcam ab110216) according to manufacturer's instructions. The two proteins are each subunits of a different oxidative phosphorylation enzyme complex, one protein being subunit I of Complex IV (COX-1), which is mitochondrial (mt)DNA-encoded, and the other being the 70 kDa subunit of Complex II (SDH-A), which is nuclear (n)DNA-encoded. Complex IV includes several proteins which are encoded in the mitochondrion, while the proteins of Complex II are entirely encoded in the nucleus. HepG2 cells (ATCC, HB-8065) were cultured (5% CO2 at 37° C.) and plated in Poly-D-Lysine 384-Well plate (Corning, 356663) at a density of 40,000 cells/mL in 50 μL. Culture and assay media consisted of DMEM (Gibco, 11995-065) supplemented with 1% Penicillin-Streptomycin and 10% FBS (Hyclone, SV30087.03). Cells were allowed to settle for 30 min at room temperature and further incubated overnight (37° C. and 5% CO2) for adherence. Next day, 50-5 μM of the negative control Chloramphenicol (Selleck, S1677), test compounds (50-10 μM) and vehicle DMSO (0.2%) were added at the recommended volumes to the 384-well plate for 7 days without media change using a Tecan compound dispenser. All the solutions and wash buffers were prepared and dispensed according to manufacturer's volumes for a 384-well plate format. Effects of compounds on mtDNA-encoded protein expression (COX-I) and nuclear DNA-encoded mitochondrial protein expression (SDH-A) were expressed as relative signal (nm) to vehicle of a n=2 per conditions.
For orientation: An ELISA detects its analyte on a solid surface through an enzyme-linked reagent.

Where two headings read alike, the source gives them in different places.

Regarding `CC(C)(CO)[C@@H](O)C(=O)NCCC(=O)NCCSC(=O)[C@@H](N)CCC(=O)O` [Compound 383], the inhibition at 50 µM in test [1] was at least 30%. Further, the inhibition at 10 µM was at least 10% in test [2] (BCKD GM00612, Assay Condition A, read-out: Decreased ROS by at least 10%) and at least 60% in test [3].

Consider `COC(=O)C[C@H](N)C(=O)SCCNC(=O)CCNC(=O)[C@H](O)C(C)(C)CO` [Compound 414], for which the inhibition at 10 µM was above 20% in test [4]; at least 10% in test [2] (BCKD GM00649, Assay Condition C, read-out: Decreased ROS by at least 10%); at least 30% in test [2] (BCKD GM00649, Assay Condition C, read-out: Decreased ROS by at least 30%). Further, the activation at 10 µM in test [5] turned out to be 10%.

These data come from patent US20230107216A1, “PANTETHEINE DERIVATIVES AND USES THEREOF” (Comet Therapeutics, Inc., priority 2018, published 2023).
